Results: patent US10105380B2, “Glycoclusters and their pharmaceutical use as antibacterials” (priority 2013, dated 2018)
Converted amounts (≈) assume the structure as drawn. Read-outs that look alike come from different tables or passages of the source.

Columns and labels:
PA-IL [1] = molecular target: T1, PA-IL (Pseudomonas aeruginosa, UniProt Q05097); assay: Enzyme Linked Lectin Assay (ELLA), PAA-galactose coated plates; assay type: binding; conditions: IC50 of Gal-ArNO2 over IC50 of the molecule
T1 sequence (Q05097 2-122): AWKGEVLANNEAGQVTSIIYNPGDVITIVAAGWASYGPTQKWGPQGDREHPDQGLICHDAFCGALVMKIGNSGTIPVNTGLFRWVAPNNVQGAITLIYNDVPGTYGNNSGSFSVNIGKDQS
Description: (§1) The binding of PA-IL to galactoclusters was probed as the ability of the clusters to inhibit the binding of PA-IL to rabbit erythrocytes (Hemagglutination inhibition assay, HIA) or to surface bound galactosyl modified polyacrylamide either by Surface Plasmon Resonance (SPR), Enzyme Linked Assay (ELLA) Inhibition was measured with competitive assays. In HIA experiments, the minimal inhibitory concentration (MIC) is the minimal concentration of galactocluster that inhibit the hemagglutination of rabbit erythrocytes in presence of the lectin. The lower the MIC the highest is the binding of the galactocluster to the lectin. SPR and ELLA were used to determine the IC50 value. […] The lower the IC50 value as determined by SPR (^SPRIC50) and ELLA (^ELLAIC50), the higher is the binding of PA-IL to the galactocluster.
96-Well microtiter plates (NuncMaxisorb) were coated with α-PAA-Gal(PAA=polyacrylamide) for PA-IL (Lectinity Holding, Inc.): 100 μL of 5 μg·mL^−1 in carbonate buffer, pH 9.6 for 1 h at 37° C., then blocking at 37° C. for 1 h with 100 μL per well of 3% (w/v) bovine serum albumin (BSA) in phosphate buffer solution (PBS). Lectin solutions (75 μL) were diluted (1:2) starting from 30 μg·mL^−1. After 1 h incubation at 37° C. and three washes with T-PBS (PBS that contained 0.05% Tween 20), horseradish peroxidase (HRP)-streptavidin conjugate (100 μL; dilution 2:8000; Boehringer-Mannheim) was added and left for 1 h at 37° C. Coloration was developed by using 100 μL per well of 0.05% phosphate/citrate buffer that contained o-phenylenediaminedihydrochloride ([…]) and urea hydrogen peroxide (0.4 mg·mL^−1) (OPD kit, Sigma-Aldrich) for 15 min and stopped with sulfuric acid (50 μL, 30%). Absorbance was then read at 490 nm using a microtiter plate reader (BioRad 680). The concentration of biotinylatedlectins was determined by plotting the relative absorbance versus lectin concentration. The concentration that led to the highest response in the linear area was selected as the standard lectin concentration for the subsequent inhibition experiments.
Microtiter plates were modified with PAA-galactose. Slides were incubated with increasing concentration of galactosylated ligands. […] The lowest the IC50 as determined the strongest is the binding of the studied molecule to PA-IL. ELLA: This IC50 will be referred here after ^ELLAIC50. SPR: This IC50 will be referred here after ^SPRIC50.

PA-IL [2] = molecular target: T1, PA-IL; assay: Surface Plasmon Resonance (SPR) inhibition; assay type: binding; conditions: IC50 of Gal-ArNO2 over IC50 of the molecule
Description: as §1
SPR inhibition experiments were performed using a Biacore 3000 instrument at 25° C. Measurements were carried out on two channels with two immobilized sugars: α-L-fucose (channel 1) and α-D-galactose (channel 2). Immobilization of sugars was performed at 25° C. using running buffer (HBS) at […]. Immobilization on each channel (CM5 Chip) was performed independently as follows. First, the channel was activated by injecting a fresh mixture of EDC/NHS (35 μL, 420 s). Then a solution of streptavidin ([…] in 0.1 mM AcONa pH 5 buffer) was injected (50 μL, 600 s). The remaining reactive species were quenched by injecting ethanolamine (1M, 35 μL, 420 s) into the solution. Finally, a solution of the desired biotinylated-polyacrylamide-sugar (lectinity, […]) was coated onto the surface (50 μL, 600 s) through streptavidin-biotin interaction. […] Inhibition studies consisted of the injection (150 μL, 10 μL·min^−1, dissociation 120 s) of incubated (>1 h, RT) mixtures of PAIL ([…]) and various concentrations of inhibitor (twofold cascade dilutions). […] The CM5 chip was fully regenerated by successive injections of d-galactose (2×30 μL, 100 mm in running buffer). Binding was measured as RU over time after blank subtraction, and data were then evaluated using the BIAevaluation Software version 4.1. For IC50 evaluation, the response (Req-fitted) was considered to be the amount of lectin bound to the carbohydrate-coated surface at equilibrium in the presence of a defined concentration of inhibitor. Inhibition curves were obtained by plotting the percentage of inhibition against the inhibitor concentration (on a logarithmic scale) by using Origin 7.0 software (OriginLab Corp.), and IC50 values were extracted from sigmoidal fit of the inhibition curve.
Microtiter plates were modified with PAA-galactose. […] The lowest the IC50 as determined the strongest is the binding of the studied molecule to PA-IL. […]

PA-IL [3] = molecular target: T1, PA-IL; assay: Kd determination on DDI microarray (Langmuir isotherm, Scatchard plot); assay type: binding
Description: The methodologies for Kd and IC50 value determination have been previously reported (Gerland, B. et al., (2012) Bioconjugate Chem. 23, 1534-1547; Zhang, J. et al., (2009) Chem. Comm., 6795-6797; Zhang, J. et al., (2009) Biosens. Bioelectron. 24, 2515-2521).
CaCl2 (1 μg/mL final concentration) was added. PA-IL at the desired final concentration was then added. 2 μL of each solution (corresponding to the desired PA-IL concentration) were poured in the corresponding microwells. The slide was incubated (3 h, 37° C.) in a water vapor saturated chamber and finally washed in PBS-Tween 20 (0.02%, 5 min, 4° C.) and dried. A Microarray scanner, GenePix 4100A software package (Axon Instruments; λex 532/635 nm and λem 575/670 nm) was used for fluorescent imaging of both fluorophore (Cy3 and Alexa 647). The average of the mean fluorescence signal was calculated from eight spots. The resulting Langmuir Isotherms were linearised using Scatchard plot to give the Kd values at the ordonnate intercept.

PA-IL [4] = molecular target: T1, PA-IL; assay type: binding; conditions: for Potency vs EG3-O-Gal: ratio of IC50Lac to mono EG3-O-galactose (entry 1); for Potency vs AcNPhe-O-Gal: ratio of IC50Lac to mono-aromatic galactose 31 (entry 2); for β: Table 6, relative potency vs monovalent ligand 31
Description: IC50 Determination with “on Chip” Biological Recognition
Lectin PA-IL (0.12 μM final concentration), BSA (2% final concentration) and CaCl2 (1 μg/mL final concentration) was diluted in PBS1× (pH=7.4). In each micro tube was added the inhibitor lactose at the desired final concentration (0; 1.10^−5; 1.10^−4; 5.10^−4; 1.10^−3; 5.10^−3; 1.10^−2; 5.10^−2; 0.1; 1; 5; 10; 50; 10^2; 5.10^2; 10^3; 5.10^3; 10^4; 10^5; 3.10^5).
2 μL of each solution were deposited in the corresponding microwells and the slide was incubated at 37° C. in a water vapor saturated chamber for 3 h. The washing steps are: PBS-Tween0.2% 5 min at 4° C., then briefly in deionized water and dried by centrifugation.
Slide was scanned at 532 nm then at 635 nm with the Microarray scanner, GenePix 4100A software package (Axon Instruments; λex 532/635 nm and λem 575/670 nm). The fluorescence signal of each conjugate was determined as the average of the mean fluorescence signal of sixty-four spots.
IC50 values were determined using “BioDataFit 1.02 program”. The model chosen was “Sigmoidal”: Y=a+(b−a)/[1+10^(x−c)]
with a=FImin, b=FImax, x=[…] and c=log(IC50). FImin/max is the minimum/maximum Alexa-647 fluorescence signal observed for a galactomimetic.
So the IC50 value was called IC50Lac.

PA-IL [5] = molecular target: T1, PA-IL; assay type: binding; conditions: potency in respect with GalOMe (ITC Kd)
Description: Recombinant lyophilized PA-IL was dissolved in buffer (0.1 M TRIS-HCl, 6 μM CaCl2, pH 7.5) and degassed. […] ITC was performed using a VP-ITC MicroCalorimeter from MicroCal Incorporated. PA-IL was placed into the1.4478 mL sample cell, at 25° C. Titration was performed with 10 μL injections of carbohydrate ligands every 300 s. Data were fitted using the “one-site model” using MicroCal Origin 7 software according to standard procedures. Fitted data yielded the stoichiometry (n), the association constant (Ka), and the enthalpy of binding (ΔH). Other thermodynamic parameters (i.e., changes in free energy ΔG and entropy ΔS) were calculated from the equation ΔG=ΔH−TΔS=−RTlnKa in which T is the absolute temperature and R=8.314 J·mol^−1·K^−1. Two or three independent titrations were performed for each ligand tested.

PA-IL [6] = molecular target: T1, PA-IL; assay: Hemagglutination inhibition assay (HIA), rabbit erythrocytes; assay type: cell-based
Description: as §1
Hemagglutination inhibition assays (HIA) were performed in U-shaped 96-well microtitre plates. Rabbit erythrocytes were purchased from Biomérieux and used without further washing. Erythrocytes were diluted to a 8% solution in NaCl (100 mM). PA-IL solutions of 3 μM were prepared in TRIS-HCl 20 mM (TRIS=tris(hydroxymethyl)aminomethane), NaCl 100 mM, and CaCl2 100 mM. The hemagglutination unit (HU) was first obtained by addition of the 4% erythrocyte solution (50 μL) to aliquots (50 μL) of sequential (twice) lectin dilutions. The mixture was incubated at 25° C. for 30 min. The HU was measured as the minimum lectin concentration required to observe hemagglutination. For the following lectin-inhibition assays, lectin concentrations of 4 HU were used. […] Subsequent inhibition assays were then carried out by the addition of lectin solution (25 μL, at the required concentration) to sequential dilutions (50 μL) of glycoclusters, monomer molecules, and controls. These solutions were incubated at 37° C. for 30 min, then 8% erythrocyte solution (25 μL) was added, followed by an additional incubation at 37° C. for 1 h. The minimum inhibitory concentration for each molecule was determined for each duplicate.

PA-IL [7] = molecular target: T1, PA-IL; assay: DDI glycoarray, direct fluorescence scanning with Alexa647-PA-IL; assay type: binding; conditions: result in words
[8] = DNA-tagged galactoclusters G1-G24 on glycoarray
[9] = lactose concentration required to displace 50% of PA-IL from the glycocluster, higher = better binding, read-out: IC50Lac
[10] = DNA-tagged galactoclusters G1-G24 on glycoarray, read-out: IC50
[11] = text b577, microarray, Langmuir isotherm

**Q.** Which “ELLA βAr” value (PA-IL [1]) does the source give for Man(POProTzEG3-O-Gal)4 here?
**A.** 1.2

**Q.** What about the “SPR βAr” value (PA-IL [2]) of the same compound?
**A.** 1.7

**Q.** How did the Kd (PA-IL [3]; [8]) turn out when Man(PSEG3MTzproNCONapht-OGal)4 [G24] was run?
**A.** 0.031 µM

**Q.** How did the Kd (PA-IL [3]; [8]) turn out when Man(EG2MTzproNCOBisphe-OGal)4 [G17] was run?
**A.** 0.02 µM

**Q.** “Man[POTHME(MTzAcNPhe-O-Gal)2]4 [compound 35]” was tested. Which IC50 (PA-IL [4]; [9]) did it give?
**A.** 1810 µM

**Q.** And the “Potency vs EG3-O-Gal” value (PA-IL [4])?
**A.** 361

**Q.** And the “Potency vs AcNPhe-O-Gal” value (PA-IL [4])?
**A.** 113

**Q.** With `CO[C@@H]1O[C@H](CO)[C@H](O)[C@H](O)[C@H]1O` [Gal-OMe, 1-O-Methyl-β-D-galactoside] as the compound, how does the βMe (PA-IL [5]) read?
**A.** 1

**Q.** And the MIC (PA-IL [6]; minimal inhibitory concentration of hemagglutination, PA-IL 3 μM)?
**A.** 16 mM (≈ 3110 µg/mL)

**Q.** And the βAr (PA-IL [6]; ratio of MIC of Gal-OArNO2 over MIC of the molecule)?
**A.** 0.13

**Q.** What about the βMe (PA-IL [6]; ratio of MIC of Gal-OMe over MIC of the molecule) of the same compound?
**A.** 1.0

**Q.** Man(PSEG3MTzAcNPhe-CH2-Gal)4 [G8] was tested. Which Kd (PA-IL [3]; [8]) did it give?
**A.** 0.125 µM

**Q.** What about the IC50 (PA-IL [4]; [10]) of the same compound?
**A.** 8400 µM

**Q.** With Man(POProTzEG3-O-Gal)4 [C3] as the compound, how does the β (PA-IL [4]) read?
**A.** 1.8

**Q.** And the IC50 (PA-IL [4]; [9])?
**A.** 29 µM

**Q.** What about the “Potency vs EG3-O-Gal” value (PA-IL [4]) of the same compound?
**A.** 5.8

**Q.** And the “Potency vs AcNPhe-O-Gal” value (PA-IL [4])?
**A.** 1.8

**Q.** For Man(POProTzAcNPhe-O-Gal)4 [17d], which Kd (PA-IL [3]; [11]) is on record?
**A.** 0.196 µM

**Q.** What about the β (PA-IL [4]) of the same compound?
**A.** 177

**Q.** What about the “Potency vs EG3-O-Gal” value (PA-IL [4]) of the same compound?
**A.** 565

**Q.** And the “Potency vs AcNPhe-O-Gal” value (PA-IL [4])?
**A.** 177

**Q.** And the “binding to PA-IL on microarray” value (PA-IL [7])?
**A.** high binding

**Q.** Which Kd (PA-IL [3]; [11]) does the source give for “Man(POEG2MTzAcNPhe-O-Gal)4 [compound 32]” here?
**A.** 0.083 µM

**Q.** And the IC50 (PA-IL [4]; Table 6, DNA-galactomimetics, lactose as inhibitor, read-out: microarray IC50Lac)?
**A.** 4220 µM

**Q.** What about the β (PA-IL [4]) of the same compound?
**A.** 264

**Q.** And the IC50 (PA-IL [4]; [9])?
**A.** 4220 µM

**Q.** And the “Potency vs EG3-O-Gal” value (PA-IL [4])?
**A.** 844

**Q.** What about the “Potency vs AcNPhe-O-Gal” value (PA-IL [4]) of the same compound?
**A.** 264

**Q.** What does the source list for Man(EG3MTzAcNPh-SGal)4 [G11]?
**A.** Kd (PA-IL [3]; [8]): 0.049 µM; IC50 (PA-IL [4]; [10]): 63900 µM

**Q.** For Man(PSEG2MTzAcNPh-SGal)4 [G10], which Kd (PA-IL [3]; [8]) is on record?
**A.** 0.055 µM

**Q.** What about the IC50 (PA-IL [4]; [10]) of the same compound?
**A.** 38200 µM

**Q.** Man(PSEG2MTzproNCONapht-OGal)4 [G22] was tested. Which Kd (PA-IL [3]; [8]) did it give?
**A.** 0.02 µM

**Q.** Which Kd (PA-IL [3]; [8]) does the source give for Man(PSEG2MTzAcNPhe-CH2-SGal)4 [G14] here?
**A.** 0.071 µM

**Q.** What about the IC50 (PA-IL [4]; [10]) of the same compound?
**A.** 18500 µM

**Q.** Man(PSEG2MTzAcNPhe-CH2-Gal)4 [G6] was tested. Which Kd (PA-IL [3]; [8]) did it give?
**A.** 0.17 µM

**Q.** What about the IC50 (PA-IL [4]; [10]) of the same compound?
**A.** 5700 µM
